Measured values published in patent publication US10875860B2, “Azaindenoisoquinoline compounds and uses thereof” (Purdue Research Foundation, priority 2016, dated 2020).
Where two headings read alike, the source gives them in different places.

What was measured:
Top1 = target: T1, Top1 (Homo sapiens, UniProt P11387); test: Top1-mediated DNA cleavage assay; format: biochemical; set-up: Top1 inhibitory activity level / Top1 inhibitory activity score: key to the marks not given beside the values
T1 sequence (P11387 1-765): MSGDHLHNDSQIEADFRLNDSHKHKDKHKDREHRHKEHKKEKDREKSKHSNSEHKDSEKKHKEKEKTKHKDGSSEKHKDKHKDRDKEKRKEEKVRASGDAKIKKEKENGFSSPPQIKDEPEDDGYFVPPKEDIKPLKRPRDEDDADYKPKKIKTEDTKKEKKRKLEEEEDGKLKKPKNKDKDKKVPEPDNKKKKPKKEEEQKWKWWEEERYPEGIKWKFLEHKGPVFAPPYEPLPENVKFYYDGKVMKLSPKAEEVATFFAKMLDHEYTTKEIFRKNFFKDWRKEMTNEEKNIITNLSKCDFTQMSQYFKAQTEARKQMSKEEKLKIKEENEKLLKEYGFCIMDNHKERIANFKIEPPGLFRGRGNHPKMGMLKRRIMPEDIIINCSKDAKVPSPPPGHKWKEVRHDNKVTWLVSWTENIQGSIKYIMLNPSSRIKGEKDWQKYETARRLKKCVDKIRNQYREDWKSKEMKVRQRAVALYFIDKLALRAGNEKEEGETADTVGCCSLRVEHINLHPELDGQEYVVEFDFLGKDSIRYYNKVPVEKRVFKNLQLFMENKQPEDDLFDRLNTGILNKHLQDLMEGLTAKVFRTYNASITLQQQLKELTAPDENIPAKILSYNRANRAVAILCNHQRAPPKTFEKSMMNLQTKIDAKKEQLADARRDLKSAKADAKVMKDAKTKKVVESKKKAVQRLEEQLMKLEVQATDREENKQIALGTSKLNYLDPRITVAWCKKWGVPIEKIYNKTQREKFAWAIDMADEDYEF

Tdp1 = Tdp1 (Homo sapiens, UniProt Q9NUW8); test: Recombinant Tdp1 assay; format: biochemical
recombinant human TDP2 = target: T2, recombinant human TDP2 (Homo sapiens, UniProt O95551); test: Recombinant Tdp2 assay; format: biochemical
T2 sequence (O95551 1-362): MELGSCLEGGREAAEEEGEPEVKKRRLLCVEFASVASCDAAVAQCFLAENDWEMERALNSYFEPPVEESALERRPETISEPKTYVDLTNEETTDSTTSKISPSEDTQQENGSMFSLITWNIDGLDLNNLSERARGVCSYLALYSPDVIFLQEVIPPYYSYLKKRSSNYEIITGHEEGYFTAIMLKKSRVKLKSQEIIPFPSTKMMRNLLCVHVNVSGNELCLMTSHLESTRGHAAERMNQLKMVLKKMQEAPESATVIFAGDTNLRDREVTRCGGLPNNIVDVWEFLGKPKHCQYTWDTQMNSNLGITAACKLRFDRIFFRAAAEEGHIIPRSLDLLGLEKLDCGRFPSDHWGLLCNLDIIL
Description: TDP2 reactions were carried out as described previously with the following modifications. […] Reactions were terminated and treated similarly to whole-cell extract and recombinant Tdp1 reactions (see previous paragraph).

HCT-116 = test: NCI-60 cytotoxicity, HCT-116; format: cell-based; conditions: Homo sapiens, single determinations, Table 2, read-out: Cytotoxicity (GI50) Colon HCT-116
DU-145 = test: NCI-60 cytotoxicity, DU-145; format: cell-based; conditions: Homo sapiens, single determinations, Table 2, read-out: Cytotoxicity (GI50) Prostate DU-145
SN12C = test: NCI-60 cytotoxicity, SN12C; conditions: Homo sapiens, read-out: Cytotoxicity (GI50) Renal SN12C
MCF-7 = test: NCI-60 cytotoxicity, MCF-7; conditions: Homo sapiens, MCF7, read-out: Cytotoxicity (GI50) Breast MCF-7
HOP-62 = test: NCI-60 cytotoxicity, HOP-62; conditions: Homo sapiens, HOP-62, read-out: Cytotoxicity (GI50) Lung HOP-62
SF-539 = test: NCI-60 cytotoxicity, SF-539; conditions: Homo sapiens, SF-539, read-out: Cytotoxicity (GI50) CNS SF-539
UACC-62 = test: NCI-60 cytotoxicity, UACC-62; conditions: Homo sapiens, UACC-62, read-out: Cytotoxicity (GI50) Melanoma UACC-62
OVCAR-3 = test: NCI-60 cytotoxicity, OVCAR-3; conditions: Homo sapiens, OVCAR-3, read-out: Cytotoxicity (GI50) Ovarian Ovcar-3
[1] = tested on: NCI-60 panel of human cancer cell lines; test: NCI-60 screen, mean graph midpoint over all cell lines; conditions: Homo sapiens, read-out: Cytotoxicity (GI50) MGM
[2] = DNA cleavage relative to 1 μM MJ-III-65 (19) and 1 μM camptothecin (18), Table 2
[3] = determined in duplicate, Table 2, read-out: Enzyme Inhibitory Activity Tdp1 (IC50)
[4] = determined in duplicate, Table 2, read-out: Enzyme Inhibitory Activity Tdp2 (IC50)

Sequence of Tdp1 (Q9NUW8 whole entry): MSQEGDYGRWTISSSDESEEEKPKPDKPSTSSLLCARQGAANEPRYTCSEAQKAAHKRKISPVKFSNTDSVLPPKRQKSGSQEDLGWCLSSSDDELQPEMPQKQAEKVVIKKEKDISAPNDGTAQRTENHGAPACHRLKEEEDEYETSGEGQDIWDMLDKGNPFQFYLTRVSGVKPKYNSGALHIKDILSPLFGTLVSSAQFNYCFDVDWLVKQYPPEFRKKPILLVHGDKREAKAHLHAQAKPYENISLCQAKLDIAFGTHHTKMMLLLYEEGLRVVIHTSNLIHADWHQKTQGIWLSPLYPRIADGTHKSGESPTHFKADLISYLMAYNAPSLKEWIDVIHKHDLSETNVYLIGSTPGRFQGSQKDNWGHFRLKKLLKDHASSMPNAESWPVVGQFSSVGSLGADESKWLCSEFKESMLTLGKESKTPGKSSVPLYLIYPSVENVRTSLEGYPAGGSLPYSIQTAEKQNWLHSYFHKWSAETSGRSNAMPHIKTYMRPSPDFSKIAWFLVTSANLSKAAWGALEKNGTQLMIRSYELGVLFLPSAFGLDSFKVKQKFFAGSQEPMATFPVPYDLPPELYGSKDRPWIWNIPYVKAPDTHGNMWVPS

SMILES	Enzyme Inhibitory Activity Top1 (Top1; [2])	IC50 (Tdp1; [3])	IC50 (recombinant human TDP2; [4])	GI50 (HCT-116)	GI50 (DU-145)	GI50 (SN12C)	GI50 (MCF-7)	GI50 (HOP-62)	GI50 (SF-539)	GI50 (UACC-62)	GI50 (OVCAR-3)	GI50 [1]	Enzyme Inhibitory Activity Top1 (Top1)	IC50 (Tdp1; semiquantitative scale, in duplicate, Table 1, read-out: Enzyme Inhibitory Activity Tdp1)	IC50 (recombinant human TDP2; semiquantitative scale, in duplicate, Table 1, read-out: Enzyme Inhibitory Activity Tdp2)	Enzyme Inhibitory Activity Top1 (Top1; DNA cleavage relative to 1 μM MJ-III-65 (19) and 1 μM camptothecin (18), Table 1)	IC50 (Tdp1)	IC50 (recombinant human TDP2)	Top1 inhibitory activity score (Top1; running text b88 on series 2, tested at 0.1, 1, 10 and 100 μM)	IC50 (Tdp1; read-out: Enzyme Inhibitory Activity Tdp1 (IC50))
COc1cnc2c(c1)C(=O)c1c-2n(CCCn2ccnc2)c(=O)c2cc(F)ccc12 [Compound 17b, 6-(3-(1H-Imidazol-1-yl)propyl)-3-fluoro-9-methoxy-5H-pyrido[3′,2′:4,5]-cyclo-penta[1,2-c]isoquinoline-5,11(6H)-dione]	+++	> 111 µM	> 111 µM	< 10 nM	< 10 nM	< 10 nM	< 10 nM	< 10 nM	24 nM	16 nM	43 nM	33 nM	–	–	–	–	–	–	–	–
COc1cc2c3c(n(CCCNCCO)c(=O)c2cc1OC)-c1cc2c(cc1C3=O)OCO2 [Compound 19, reference compound]	–	–	–	–	–	< 10 nM	< 10 nM	20 nM	40 nM	30 nM	500 nM	210 nM	++++	12 to 111 µM	1 to 12 µM	–	–	–	–	–
COc1cnc2c(c1)C(=O)c1c-2n(CCCN2CCN(C)CC2)c(=O)c2cc(Cl)ccc12 [Compound 16j, 3-Chloro-9-methoxy-6-(3-(4-methylpiperazin-1-yl)propyl)-5H-pyrido[3′,2′:4,5]cyclopenta[1,2-c]isoquinoline-5,11(6H)-dione]	+	> 111 µM	–	980 nM	3180 nM	10200 nM	487 nM	950 nM	2150 nM	1810 nM	15100 nM	2950 nM	–	–	–	–	–	–	–	–
COc1cnc2c(c1)C(=O)c1c-2n(CCCN2CCOCC2)c(=O)c2cc(F)ccc12 [Compound 17a, 3-Fluoro-9-methoxy-6-(3-morpholinopropyl)-5H-pyrido[3′,2′:4,5]cyclopenta[1,2c]-isoquinoline-5,11(6H)-dione]	+++	> 111 µM	> 111 µM	115 nM	341 nM	320 nM	44 nM	187 nM	228 nM	235 nM	250 nM	269 nM	–	–	–	–	–	–	–	–
COc1cnc2c(c1)C(=O)c1c-2n(CCCN2CCC(O)CC2)c(=O)c2cc(F)ccc12 [Compound 17d, 3-Fluoro-6-(3-(4-hydroxypiperidin-1-yl)propyl)-9-methoxy-5H-pyrido[3′,2′:4,5]-cyclopenta[1,2-c]-isoquinoline-5,11(6H)-dione]	+	> 111 µM	> 111 µM	89 nM	174 nM	189 nM	31 nM	142 nM	295 nM	240 nM	254 nM	199 nM	–	–	–	–	–	–	–	–
CC[C@@]1(O)C(=O)OCc2c1cc1n(c2=O)Cc2cc3ccccc3nc2-1 [Compound 18, camptothecin, reference compound]	–	–	–	–	–	20 nM	13 nM	< 10 nM	< 10 nM	< 10 nM	–	40 nM	–	–	–	++++	> 111 µM	> 111 µM	–	–
COc1cnc2c(c1)C(=O)c1c-2n(CCCN2CCOCC2)c(=O)c2cc(Cl)ccc12 [Compound 16a, 3-Chloro-9-methoxy-6-(3-morpholinopropyl)-5H-pyrido[3′,2′:4,5]cyclopenta[1,2-c]isoquinoline-5,11(6H)-dione]	+++	> 111 µM	> 111 µM	160 nM	410 nM	–	90 nM	270 nM	230 nM	180 nM	780 nM	100 nM	–	–	–	–	–	–	–	–
COc1cnc2c(c1)C(=O)c1c-2n(CCCn2ccnc2)c(=O)c2cc(Cl)ccc12 [Compound 16b, 6-(3-(1H-Imidazol-1-yl)propyl)-3-chloro-9-methoxy-5H-pyrido[3′,2′:4,5]cyclopenta[1,2-c]isoquinoline-5,11(6H)-dione]	+++	> 111 µM	> 111 µM	14 nM	43 nM	–	< 10 nM	20 nM	38 nM	28 nM	120 nM	63 nM	–	–	–	–	–	–	–	–
CCNCCCn1c2c(c3ccc(Cl)cc3c1=O)C(=O)c1cc(OC)cnc1-2 [Compound 16h, 3-Chloro-9-methoxy-6-(3-(ethylamino)propyl)-5H-pyrido[3′,2′:4,5]cyclopenta[1,2-c]isoquinoline-5,11(6H)-dione]	–	22.2 ± 6.4 µM	–	203 nM	208 nM	675 nM	< 10 nM	122 nM	506 nM	532 nM	2130 nM	426 nM	–	–	–	–	–	–	–	–
COc1cnc2c(c1)C(=O)c1c-2n(CCCN2CCC(O)CC2)c(=O)c2cc(Cl)ccc12 [Compound 16d, 3-Chloro-6-(3-(4-hydroxypiperidin-1-yl)propyl)-9-methoxy-5H-pyrido[3′,2′:4,5]cyclopenta-[1,2-c]isoquinoline-5,11(6H)-dione]	++++	14 ± 1 µM	> 111 µM	98 nM	270 nM	–	42 nM	94 nM	430 nM	190 nM	1420 nM	660 nM	–	–	–	–	–	–	++++	–
COc1cnc2c(c1)C(=O)c1c-2n(CCCNC(C)C)c(=O)c2cc(Cl)ccc12 [Compound 16f, 3-Chloro-9-methoxy-6-(3-(isopropylamino)propyl)-5H-pyrido[3′,2′:4,5]cyclopenta[1,2-c]isoquinoline-5,11(6H)-dione]	++	33.3 ± 4.2 µM	> 111 µM	138 nM	173 nM	417 nM	37 nM	70 nM	554 nM	303 nM	1390 nM	380 nM	–	–	–	–	–	–	–	–
COc1cnc2c(c1)C(=O)c1c-2n(CCCN2CCCC2)c(=O)c2cc(Cl)ccc12 [Compound 16i, 3-Chloro-9-methoxy-6-(3-(pyrrolidin-1-yl)propyl)-5H-pyrido[3′,2′:4,5]cyclopenta[1,2-c]isoquinoline-5,11(6H)-dione]	–	–	–	–	–	–	–	–	–	–	–	–	–	–	–	–	–	–	–	27.5 ± 0.6 µM
